Source: EP0306167A2, “Stabilization of enzymes by inhibiting proteolytic enzyme contaminants” (TECHNICON INSTRUMENTS CORPORATION(a Delaware corporation), priority 1987, dated 1989)
“Also recorded” adds a separate entry of the source. Read-outs that look alike come from different tables or passages of the source.

Experiments:
[1] = test system: phosphoenol pyruvate carboxylase; assay: Stability of phosphoenol pyruvate carboxylase on storage with protease inhibitors (activity assay on TECHNICON RA-1000); type: biochemical; settings: for Percent Activity Remaining at Time (hrs.): about 20 mg/ml enzyme, Benzamidine 4mM, p-Amino benzamidine 4mM, TPCK 0.5mM, Soya Bean Trypsin Inhibitor 10 mg/ml, Egg white Trypsin Inhibitor 10 mg/ml, BSA 20mg/ml, Aprotinin 0.5 mg/ml, PMSF 1 mM
Method: The activity assays to determine the stability of phosphoenol pyruvate carboxylase were done on a TECHNICON RA-1000 clinical analyzer in accordance with established protocols for such analysis. (TECHNICON RA-1000 is a registered trademark of Technicon Instruments Corporation, Tarrytown, N.Y.) In accordance with such protocol, the enzyme solution, R₂, was placed in the sample cup. The other constituents of the assay mixture, R₁, were placed in the reagent boat. 10 µl of R₂ were mixed with 350 µl of R₁. The reaction was done at 37°C and there was a 30 second incubation period before the readings were taken. The reported activity remaining refers to the percentage of the activity determined when fresh solutions were made initially.
The solid enzyme samples were dissolved in 50 mM Hepes, pH 7.0 containing 0.1% benzoic and .01% gentamicin (R₂). The stability study was done in R₂ containing about 20 mg/ml enzyme at room temperature. The ratio of soya bean trypsin inhibitor to phosphoenol pyruvate by weight mg/ml was 10:20. The specific activity of soya bean was 7000 BAEE inhibitor units/mg and that of phosphoenol pyruvate was one unit/mg. The components of the activity assay were in R₁ as NADH, 1.3 x 10⁻⁴M; phosphoenol pyruvate, 2.5 x 10⁻³M; magnesium acetate, 1.06 x 10⁻²M and NaHCO₃, 5 x 10⁻³M; were in 104 mM tris-acetate pH 8.3 (at room temperature).
The samples were stored at room temperature in 50 mM Hepes buffer pH 7.0 containing 0.1% benzoate acid .01% gentamycin. […]

[2] = test system: PGM/PAGM enzyme solution; assay: Stability of PGM/PAGM enzyme solution on storage with protease inhibitors (coupled glucose-6-phosphate dehydrogenase rate assay at 340 nm); type: biochemical, Porcine; settings: for stabilizing effect compared between inhibitors (in words) / time enzyme activity was protected: DEAE-Tris acryl purified preparation, 4°C; for stabilizing effect compared between inhibitors (in words): pH 7.5, aprotinin .5 mg/ml, leupeptin 0.5 mg/ml, α,α′-bipyridal 2 mM; for time enzyme activity was protected: 50 mM imidazole chloride pH 7.5, p-aminobenzamidine 5mM, benzamidine 5mM; for effect on PGM/PAGM activity (in words): TPCK 2mM
Method: The presence of proteases was detected pursuant to the protocol discussed above. The quantitative assay for protease activity was done with N-α - benzoyl-L-arginine-p-nitroanalide as a substrate by a published procedure (H. Fritz, I. Truntschold and E. Werle; "Methods of Enzymatic Analysis", Ed. H. Bergmeyer, Vol. II, Academic Press, N.4. 1974). The method consist of (1) 0.2M triethanolamine buffer (pH 7.8) with 20 mM CaCl₂, (2) trypsin standard in 1 mM HCl, (3) substrate solution, 2.2 mM in water. The sensitivity can be enhanced four-fold if the concentration of the substrate was increased five times. A clear solution of the substrate was obtained by placing it in a boiling water bath for 5 minutes. The reaction mixture consisted of a .675 ml buffer and 0.325 ml substrate solution. The rate was measured at 405 nm at 37°C on a DU 8 spectrophotometer from Beckman Instruments, Inc. It was possible to detect protease activity equivalent to 1 mg/L trypsin when the standard trypsin was activity of 11000 u/mg with substrate N-α-benzoyl-L-arginine p-nitroanalide. The activity of the PGM/PAGM enzyme solution was determined using the following reaction mixture. NAD⁺, 10⁻³M; glucose-1-phosphate, 2x10⁻⁴M; glucose-1,6-diphosphate, 10⁻⁵M; Mg Acetate, 2 x 10⁻³M; EDTA, 2 x 10⁻⁴M and 1 u/ml glucose-6-phosphate dehydrogenase in 50 mM imidazole acetate, pH 7.5. The reaction was started by adding an aliquot of the enzyme solution and the rate was measured 37°C at 340 nm on a DU-8 spectro- photometer. This method is essentially similar to the literature procedures (W. Ray and E. Peck, The Enzymes, 6, 407, 1972. H. Bergmeyer, "Methods of Enzymatic Analysis" Ed. H. Bergmeyer Vol. I, Academic Press, N.Y. 1974).
A series of experiments were done to determine the stabilizing effect of various inhibitors. In one experiment the enzyme preparation included was 30-70% ammonium sulfate fraction. The effects of soya bean trypsin inhibitor (10 mg/ml), tosyl phenyl chloromethyl ketone (TPCK) (2mM) and α-antitrypsin inhibitor (2 mg/ml) were studied at pH 5.0 and 7.5, in 50 mM imidazole acetate buffer; 0.2 mM EDTA, 10 mM magnesium acetate. The stability was done at two pH values as the formation and dissociation of the inhibitor complex with trypsin is pH dependent. […] PAGM enzyme may also have serine residues at the active site. […] There was some protection afforded by α-antitrypsin inhibitor over longer periods of time at pH 7.5.
In another experiment, the enzyme preparation after ammonium sulfate fractionation was purified through DEAE-Tris acryl column chromatography. […] These trace amounts of proteases were sufficient to cause denaturation of the enzyme. A stability study using various inhibitors of proteases: aprotinin (.5 mg/ml), soybean trypsin inhibitor (5 mg/ml), p-aminobenzamidine (5mM), benzamidine (5mM), α,α′-bipyridal (2 mM) and leupeptin (0.5 mg/ml) was done. The enzyme was stored at 4°C in 50 mM imidazole chloride, 2 mM Mg acetate and .2 mM EDTA, pH 7.5. The activity was assayed at different times. […] The enzymes were stable in the presence of soya bean trypsin inhibitor for one week.

[3] = 20 Hrs, absence of (NH₄)₂SO₄, PMSF 1mM, α-Antitrypsin Inhibitor 5 mg/ml, p-Nitrophenyl-p-Guanidinobenzoate 0.1mg/ml, Ovomucoid 10 mg/ml, D-Tryptophan methyl ester 5mM, 4-Phenyl butylamine 10mM, D-Arginine 10mM, D-phenylalanine 5mM, control 35
[4] = 25 Hrs, absence of (NH₄)₂SO₄, PMSF 1mM, α-Antitrypsin Inhibitor 5 mg/ml, p-Nitrophenyl-p-Guanidinobenzoate 0.1mg/ml, Ovomucoid 10 mg/ml, D-Tryptophan methyl ester 5mM, 4-Phenyl butylamine 10mM, D-Arginine 10mM, D-phenylalanine 5mM, control 26
[5] = 20 Hrs, in presence of (NH₄)₂SO₄ (50 mM), inhibitor concentrations as without salt (PMSF 1mM, α-Antitrypsin Inhibitor 5 mg/ml, p-Nitrophenyl-p-Guanidinobenzoate 0.1mg/ml, Ovomucoid 10 mg/ml, D-Tryptophan methyl ester 5mM)
[6] = 25 Hrs, in presence of (NH₄)₂SO₄ (50 mM), inhibitor concentrations as without salt (PMSF 1mM, α-Antitrypsin Inhibitor 5 mg/ml, p-Nitrophenyl-p-Guanidinobenzoate 0.1mg/ml, Ovomucoid 10 mg/ml, D-Tryptophan methyl ester 5mM)
[7] = 2.5 hrs at room temperature in R2 (50 mM Hepes pH 7.0), control 80
[8] = 5 hrs at room temperature in R2 (50 mM Hepes pH 7.0), control 80
[9] = 23 hrs at room temperature in R2 (50 mM Hepes pH 7.0), control 25
[10] = NaCl up to 200 mM replacing (NH₄)₂SO₄ with 10 mg/ml ovomucoid, phosphoenol pyruvate 5 mM

## [Cl-].[Na+] [NaCl]
[1]
  stabilizing effect on phosphoenol pyruvate carboxylase (in words): negligible

## N[C@H](Cc1ccccc1)C(=O)O [D-phenylalanine]
[1]; [3]
  Percent Activity Remaining at Time (Hrs.): 57%
[1]; [4]
  Percent Activity Remaining at Time (Hrs.): 51%

## NCCCCc1ccccc1 [4-Phenyl butylamine]
[1]; [3]
  Percent Activity Remaining at Time (Hrs.): 57%
[1]; [4]
  Percent Activity Remaining at Time (Hrs.): 51%

## CC(=O)N[C@@H](CC(C)C)C(=O)N[C@@H](CC(C)C)C(=O)N[C@H](C=O)CCCNC(=N)N [Leupeptin]
[2]
  stabilizing effect compared between inhibitors (in words): equally effective

## N=C(N)NCCC[C@@H](N)C(=O)O [D-Arginine]
[1]; [3]
  Percent Activity Remaining at Time (Hrs.): 30%
[1]; [4]
  Percent Activity Remaining at Time (Hrs.): 24%

## c1ccc(-c2ccccn2)nc1 [α,α′-bipyridal]
[2]
  stabilizing effect compared between inhibitors (in words): least effective

## COC(=O)[C@H](N)Cc1c[nH]c2ccccc12 [D-Tryptophan methyl ester]
[1]; [3]
  Percent Activity Remaining at Time (Hrs.): 32%
[1]; [5]
  Percent Activity Remaining at Time (Hrs.): 68%
[1]; [4]
  Percent Activity Remaining at Time (Hrs.): 26%
[1]; [6]
  Percent Activity Remaining at Time (Hrs.): 71%

## N=C(N)c1ccccc1 [Benzamidine]
[2]
  time enzyme activity was protected: 5 days
[1]; [7]
  Percent Activity Remaining at Time (hrs.): 83%
[1]; [8]
  Percent Activity Remaining at Time (hrs.): 83%
[1]; [9]
  Percent Activity Remaining at Time (hrs.): 32%

## C=C(OP(=O)(O)O)C(=O)O [phosphoenol pyruvate]
[1]; [10]
  stabilizing effect on phosphoenol pyruvate carboxylase (in words): unstable

## N=C(N)c1ccc(N)cc1 [p-Amino benzamidine]
[2]
  time enzyme activity was protected: 14 days
[1]; [7]
  Percent Activity Remaining at Time (hrs.): 75%
[1]; [8]
  Percent Activity Remaining at Time (hrs.): 75%
[1]; [9]
  Percent Activity Remaining at Time (hrs.): 28%

## O=S(=O)(F)Cc1ccccc1 [PMSF, phenyl methyl sulfonyl fluoride]
[1]; [3]
  Percent Activity Remaining at Time (Hrs.): 71%
[1]; [5]
  Percent Activity Remaining at Time (Hrs.): 90%
[1]; [4]
  Percent Activity Remaining at Time (Hrs.): 61%
[1]; [6]
  Percent Activity Remaining at Time (Hrs.): 88%
[1]; [7]
  Percent Activity Remaining at Time (hrs.): 87%
[1]; [8]
  Percent Activity Remaining at Time (hrs.): 89%
[1]; [9]
  Percent Activity Remaining at Time (hrs.): 56%
[1]; [10]
  stabilizing effect on phosphoenol pyruvate carboxylase (in words): especially effective; also recorded: most effective stabilizer
[1]; PMSF in combination with ammonium sulfate, for 24 hours
  original activity: 88%
[1]; protection of PEPC activity, comparison of all effective inhibitors
  Effectiveness: 24 to 48 h

## N=C(N)Nc1ccc(C(=O)Oc2ccc([N+](=O)[O-])cc2)cc1 [p-Nitrophenyl-p-Guanidinobenzoate]
[1]; [3]
  Percent Activity Remaining at Time (Hrs.): 42%
[1]; [5]
  Percent Activity Remaining at Time (Hrs.): 60%
[1]; [4]
  Percent Activity Remaining at Time (Hrs.): 36%
[1]; [6]
  Percent Activity Remaining at Time (Hrs.): 57%

## Cc1ccc(S(=O)(=O)N[C@@H](Cc2ccccc2)C(=O)CCl)cc1 [TPCK]
[2]; pH 5.0, 30-70% ammonium sulfate fraction
  effect on PGM/PAGM activity (in words): destroyed the activity sooner than the control
[2]; pH 7.5, 30-70% ammonium sulfate fraction, soya bean trypsin inhibitor 10 mg/ml, α-antitrypsin inhibitor 2 mg/ml
  effect on PGM/PAGM activity (in words): did not show any additional inactivation
[1]; [7]
  Percent Activity Remaining at Time (hrs.): 74%
[1]; [8]
  Percent Activity Remaining at Time (hrs.): 68%
[1]; [9]
  Percent Activity Remaining at Time (hrs.): 28%
